Measured values as given in US20240423992A1, “BIOMARKERS FOR TREATING LIVER DISORDERS WITH THR-B AGONISTS AND RELATED USES” (Madrigal Pharmaceuticals, Inc., priority 2023, published 2024).

What was measured:
[1] = test system: patients with Nonalcoholic Steatohepatitis; test: Phase 3 trial in Nonalcoholic Steatohepatitis (Example 2): thyroid hormone levels; format: in vivo, human
Protocol: (§1) A randomized, double-blind, placebo-controlled Phase 3 trial was conducted. Patients were randomly assigned to receive resmetirom 80 mg, resmetirom 100 mg, or placebo administered orally once daily. Screening biopsy results were used as baseline for histologic variables and a second biopsy was performed at Week 52.

[2] = test system: patients with Nonalcoholic Steatohepatitis; test: Phase 3 trial in Nonalcoholic Steatohepatitis (Example 2): NASH resolution and fibrosis improvement on biopsy; format: in vivo, human
Protocol: as §1

[3] = Resmetirom 80 mg, Week 52, not on thyroxine
[4] = Resmetirom 80 mg, Week 52, thyroxine-treated
[5] = Resmetirom 100 mg, Week 52, not on thyroxine
[6] = Resmetirom 100 mg, Week 52, thyroxine-treated
[7] = independent of thyroxine replacement

rT3 LS Mean CFB (SE) ([1]; Resmetirom 80 mg, Week 52): −4.6 (0.31) ng/dL | FT3/rT3 CFB, LS Mean Difference from PBO [1, 3]: 0.06 | FT3/rT3 LS Mean CFB (SE) [1, 3]: 0.06 (0.005) | FT3 CFB, LS Mean Difference from PBO [1, 3]: 0.01 ng/L | FT3 LS Mean CFB (SE) [1, 3]: −0.01 (0.032) ng/L | FT4 % CFB, LS Mean Difference from PBO [1, 3]: −16.3% | FT4 CFB, LS Mean Difference from PBO [1, 3]: -0.18 ng/dL | FT4 LS Mean % CFB (SE) [1, 3]: −13.8 (0.97) % | FT4 LS Mean CFB (SE) [1, 3]: −0.16 (0.011) ng/dL | TBG CFB, LS Mean Difference from PBO [1, 3]: -1.8 mg/L | TBG LS Mean CFB (SE) [1, 3]: −0.19 (0.47) mg/L | TSH CFB, LS Mean Difference from PBO [1, 3]: −0.15 mIU/L | TSH LS Mean CFB (SE) [1, 3]: −0.23 (0.056) mIU/L | rT3 CFB, LS Mean Difference from PBO [1, 3]: -4.5 ng/dL | rT3 LS Mean CFB (SE) [1, 3]: −4.5 (0.33) ng/dL | FT3/rT3 CFB, LS Mean Difference from PBO [1, 4]: 0.06 | FT3/rT3 LS Mean CFB (SE) [1, 4]: 0.05 (0.011) | FT3 CFB, LS Mean Difference from PBO [1, 4]: 0.05 ng/L | FT3 LS Mean CFB (SE) [1, 4]: 0.04 (0.089) ng/L | FT4 % CFB, LS Mean Difference from PBO [1, 4]: −17.9% | FT4 CFB, LS Mean Difference from PBO [1, 4]: -0.21 ng/dL | FT4 LS Mean % CFB (SE) [1, 4]: −14.0 (3.6) % | FT4 LS Mean CFB (SE) [1, 4]: −0.18 (0.041) ng/dL | TBG CFB, LS Mean Difference from PBO [1, 4]: -2.6 mg/L | TBG LS Mean CFB (SE) [1, 4]: −1.1 (1.4) mg/L | TSH CFB, LS Mean Difference from PBO [1, 4]: −0.41 mIU/L | TSH LS Mean CFB (SE) [1, 4]: −0.63 (0.27) mIU/L | rT3 CFB, LS Mean Difference from PBO [1, 4]: -5.1 ng/dL | rT3 LS Mean CFB (SE) [1, 4]: −5.1 (0.94) ng/dL | FT3/rT3 CFB, LS Mean Difference from PBO ([1]; Resmetirom 100 mg, Week 52): 0.07 | FT3/rT3 LS Mean CFB (SE) ([1]; Resmetirom 100 mg, Week 52): 0.06 (0.004) | FT3 CFB, LS Mean Difference from PBO ([1]; Resmetirom 100 mg, Week 52): -0.05 ng/L | FT3 LS Mean CFB (SE) ([1]; Resmetirom 100 mg, Week 52): −0.08 (0.031) ng/L | FT4 % CFB, LS Mean Difference from PBO ([1]; Resmetirom 100 mg, Week 52): −20.7% | FT4 CFB, LS Mean Difference from PBO ([1]; Resmetirom 100 mg, Week 52): -0.24 ng/dL | FT4 LS Mean % CFB (SE) ([1]; Resmetirom 100 mg, Week 52): −18.1 (0.97) % | FT4 LS Mean CFB (SE) ([1]; Resmetirom 100 mg, Week 52): −0.22 (0.011) ng/dL | TBG CFB, LS Mean Difference from PBO ([1]; Resmetirom 100 mg, Week 52): -2.2 mg/L | TBG LS Mean CFB (SE) ([1]; Resmetirom 100 mg, Week 52): −0.60 (0.45) mg/L | TSH CFB, LS Mean Difference from PBO ([1]; Resmetirom 100 mg, Week 52): −0.10 mIU/L | TSH LS Mean CFB (SE) ([1]; Resmetirom 100 mg, Week 52): −0.20 (0.060) mIU/L | rT3 CFB, LS Mean Difference from PBO ([1]; Resmetirom 100 mg, Week 52): -5.2 ng/dL | rT3 LS Mean CFB (SE) ([1]; Resmetirom 100 mg, Week 52): −5.1 (0.32) ng/dL | FT3/rT3 CFB, LS Mean Difference from PBO [1, 5]: 0.07 | FT3/rT3 LS Mean CFB (SE) [1, 5]: 0.06 (0.005) | FT3 CFB, LS Mean Difference from PBO [1, 5]: -0.06 ng/L | FT3 LS Mean CFB (SE) [1, 5]: −0.08 (0.033) ng/L | FT4 % CFB, LS Mean Difference from PBO [1, 5]: −20.0% | FT4 CFB, LS Mean Difference from PBO [1, 5]: -0.23 ng/dL | FT4 LS Mean % CFB (SE) [1, 5]: −17.6 (1.0) % | FT4 LS Mean CFB (SE) [1, 5]: −0.21 (0.011) ng/dL | TBG CFB, LS Mean Difference from PBO [1, 5]: -1.8 mg/L | TBG LS Mean CFB (SE) [1, 5]: −0.21 (0.49) mg/L | TSH CFB, LS Mean Difference from PBO [1, 5]: −0.12 mIU/L | TSH LS Mean CFB (SE) [1, 5]: −0.20 (0.058) mIU/L | rT3 CFB, LS Mean Difference from PBO [1, 5]: -5.1 ng/dL | rT3 LS Mean CFB (SE) [1, 5]: −4.9 (0.34) ng/dL | FT3/rT3 CFB, LS Mean Difference from PBO [1, 6]: 0.06 | FT3/rT3 LS Mean CFB (SE) [1, 6]: 0.06 (0.010) | FT3 CFB, LS Mean Difference from PBO [1, 6]: -0.01 ng/L | FT3 LS Mean CFB (SE) [1, 6]: −0.03 (0.081) ng/L | FT4 % CFB, LS Mean Difference from PBO [1, 6]: −24.4% | FT4 CFB, LS Mean Difference from PBO [1, 6]: -0.29 ng/dL | FT4 LS Mean % CFB (SE) [1, 6]: −20.6 (3.3) % | FT4 LS Mean CFB (SE) [1, 6]: −0.26 (0.037) ng/dL | TBG CFB, LS Mean Difference from PBO [1, 6]: -4.6 mg/L | TBG LS Mean CFB (SE) [1, 6]: −3.1 (1.3) mg/L | TSH CFB, LS Mean Difference from PBO [1, 6]: 0.09 mIU/L | TSH LS Mean CFB (SE) [1, 6]: −0.13 (0.25) mIU/L | rT3 CFB, LS Mean Difference from PBO [1, 6]: -6.3 ng/dL | rT3 LS Mean CFB (SE) [1, 6]: −6.3 (0.85) ng/dL | Thyroid hormone indices ([1]; in vivo): not clinically impacted
SMILES: CC(C)c1cc(Oc2c(Cl)cc(-n3nc(C#N)c(=O)[nH]c3=O)cc2Cl)n[nH]c1=O [Resmetirom, 2-[3,5-dichloro-4-[(6-oxo-5-propan-2-yl-1H-pyridazin-3-yl)oxy]phenyl]-3,5-dioxo-1,2,4-triazine-6-carbonitrile]
effect on free triiodothyronine (FT3) [1, 7]: no effect | effect on thyroid-stimulating hormone (TSH) [1, 7]: no effect | reduction of free thyroxine (FT4) ([1]; resmetirom groups): 16-19% | NASH resolution / fibrosis improvement, 100 mg compared with 80 mg ([2]; 100 mg resmetirom group, except in patients ≥65 years): generally outperformed the 80 mg group | patients achieving NASH resolution or fibrosis improvement compared with placebo ([2]; Week 52 biopsy, across subgroups): significantly more resmetirom-treated patients achieving either NASH resolution or fibrosis improvement | response at both endpoints (NASH resolution, fibrosis improvement) by subgroup ([2]; patients with ≥30% liver fat reduction or SHBG increase ≥120%): greater response
